Source: PubChem BioAssay (NCI)
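GI50 marks 50% less growth. TGI denotes the concentration required for complete inhibition of growth.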

What was measured:
Assay in all cases: DTP human tumour cell line panel, 384-well format
MDA-MB-435 melanoma = test system: MDA-MB-435 melanoma
OVCAR-3 ovarian = test system: OVCAR-3 ovarian
MDA-MB-231 breast = test system: MDA-MB-231 breast
UACC-257 melanoma = test system: UACC-257 melanoma
SF-539 CNS = test system: SF-539 CNS
SK-MEL-28 melanoma = test system: SK-MEL-28 melanoma
SR leukemia = test system: SR leukemia
SK-MEL-2 melanoma = test system: SK-MEL-2 melanoma
NCI-H460 NSCLC = test system: NCI-H460 NSCLC
RPMI-8226 leukemia = test system: RPMI-8226 leukemia
MCF7 breast = test system: MCF7 breast
KM12 colon = test system: KM12 colon
TK-10 renal = test system: TK-10 renal
SK-MEL-5 melanoma = test system: SK-MEL-5 melanoma
K-562 leukemia = test system: K-562 leukemia
RXF 393 renal = test system: RXF 393 renal
HOP-92 NSCLC = test system: HOP-92 NSCLC
A549 NSCLC = test system: A549 NSCLC
OVCAR-5 ovarian = test system: OVCAR-5 ovarian
SF-295 CNS = test system: SF-295 CNS
UO-31 renal = test system: UO-31 renal
OVCAR-8 ovarian = test system: OVCAR-8 ovarian
COLO 205 colon = test system: COLO 205 colon
ACHN renal = test system: ACHN renal
NCI-H23 lung = test system: NCI-H23 lung
MOLT-4 leukemia = test system: MOLT-4 leukemia
M14 melanoma = test system: M14 melanoma
NCI-H522 lung = test system: NCI-H522 lung
CAKI-1 renal = test system: CAKI-1 renal
OVCAR-4 ovarian = test system: OVCAR-4 ovarian
A498 renal = test system: A498 renal
U251 glioblastoma = test system: U251 glioblastoma
SNB-19 CNS = test system: SNB-19 CNS
SF-268 CNS = test system: SF-268 CNS
HCC-2998 colon = test system: HCC-2998 colon
LOX IMVI melanoma = test system: LOX IMVI melanoma
HOP-62 NSCLC = test system: HOP-62 NSCLC
T-47D breast = test system: T-47D breast
NCI-H226 lung = test system: NCI-H226 lung
SK-OV-3 ovarian = test system: SK-OV-3 ovarian
HT29 colon = test system: HT29 colon
786-0 renal = test system: 786-0 renal
DU-145 prostate = test system: DU-145 prostate
NCI-H322M lung = test system: NCI-H322M lung
BT-549 breast = test system: BT-549 breast
HL-60(TB) leukemia = test system: HL-60(TB) leukemia
SN12C renal = test system: SN12C renal
IGROV1 ovarian = test system: IGROV1 ovarian
CCRF-CEM leukemia = test system: CCRF-CEM leukemia
NCI/ADR-RES ovarian = test system: NCI/ADR-RES ovarian
HCT-116 colon = test system: HCT-116 colon
SW-620 colon = test system: SW-620 colon
MDA-MB-468 breast = test system: MDA-MB-468 breast
PC-3 prostate = test system: PC-3 prostate
MALME-3M melanoma = test system: MALME-3M melanoma
HCT-15 colon = test system: HCT-15 colon
UACC-62 melanoma = test system: UACC-62 melanoma

`CN(CC(=O)N(Cc1ccc(C2CCCCC2)cc1)c1ccc(C(=O)O)c(O)c1)S(=O)(=O)c1c(F)c(F)c(F)c(F)c1F` was tested, and the GI50 (MDA-MB-435 melanoma) was 2.29 µM, the TGI (MDA-MB-435 melanoma) was 4.28 µM and the GI50 (OVCAR-3 ovarian) was 2.19 µM. The TGI (OVCAR-3 ovarian) was 4.24 µM, the GI50 (MDA-MB-231 breast) was 1.98 µM and the TGI (MDA-MB-231 breast) was 3.47 µM. For the same molecule, the GI50 (UACC-257 melanoma) was 1.75 µM, the TGI (UACC-257 melanoma) was 3.18 µM and the GI50 (SF-539 CNS) was 2.01 µM. The TGI (SF-539 CNS) was 3.76 µM, the GI50 (SK-MEL-28 melanoma) was 2.58 µM and the TGI (SK-MEL-28 melanoma) was 5.55 µM. It also gave a GI50 (SR leukemia) of 1.79 µM, a TGI (SR leukemia) of 3.2 µM and a GI50 (SK-MEL-2 melanoma) of 2.02 µM. It also gave a TGI (SK-MEL-2 melanoma) of 3.62 µM, a GI50 (NCI-H460 NSCLC) of 4.96 µM and a TGI (NCI-H460 NSCLC) of 16.9 µM. The GI50 (RPMI-8226 leukemia) was 1.79 µM, the TGI (RPMI-8226 leukemia) was 3.18 µM and the GI50 (MCF7 breast) was 1.88 µM. It also gave a TGI (MCF7 breast) of 3.54 µM, a GI50 (KM12 colon) of 4.16 µM and a TGI (KM12 colon) of 13.4 µM. For the same molecule, the GI50 (TK-10 renal) was 14.5 µM, the TGI (TK-10 renal) was 27.6 µM and the GI50 (SK-MEL-5 melanoma) was 4.6 µM. It also gave a TGI (SK-MEL-5 melanoma) of 14.5 µM, a GI50 (K-562 leukemia) of 2.1 µM and a TGI (K-562 leukemia) of 3.56 µM. For the same molecule, the GI50 (RXF 393 renal) was 1.83 µM, the TGI (RXF 393 renal) was 3.41 µM and the GI50 (HOP-92 NSCLC) was 2.65 µM. It also gave a TGI (HOP-92 NSCLC) of 5.88 µM, a GI50 (A549 NSCLC) of 16.8 µM and a TGI (A549 NSCLC) of 30.6 µM. The GI50 (OVCAR-5 ovarian) was 19.1 µM, the TGI (OVCAR-5 ovarian) was 33.2 µM and the GI50 (SF-295 CNS) was 16.2 µM. The TGI (SF-295 CNS) was 29.8 µM, the GI50 (UO-31 renal) was 12.5 µM and the TGI (UO-31 renal) was 25 µM. For the same molecule, the GI50 (OVCAR-8 ovarian) was 1.92 µM, the TGI (OVCAR-8 ovarian) was 3.47 µM and the GI50 (COLO 205 colon) was 2.86 µM. The TGI (COLO 205 colon) was 6.54 µM, the GI50 (ACHN renal) was 12.4 µM and the TGI (ACHN renal) was 24.9 µM. It also gave a GI50 (NCI-H23 lung) of 6.96 µM, a TGI (NCI-H23 lung) of 18.3 µM and a GI50 (MOLT-4 leukemia) of 1.89 µM. For the same molecule, the TGI (MOLT-4 leukemia) was 3.32 µM, the GI50 (M14 melanoma) was 2 µM and the TGI (M14 melanoma) was 3.55 µM. The GI50 (NCI-H522 lung) was 1.88 µM, the TGI (NCI-H522 lung) was 3.29 µM and the GI50 (CAKI-1 renal) was 2.44 µM. For the same molecule, the TGI (CAKI-1 renal) was 5.2 µM, the GI50 (OVCAR-4 ovarian) was 10.7 µM and the TGI (OVCAR-4 ovarian) was 22.6 µM. For the same molecule, the GI50 (A498 renal) was 15.1 µM, the TGI (A498 renal) was 28.4 µM and the GI50 (U251 glioblastoma) was 1.85 µM. The TGI (U251 glioblastoma) was 3.28 µM, the GI50 (SNB-19 CNS) was 1.99 µM and the TGI (SNB-19 CNS) was 3.6 µM. It also gave a GI50 (SF-268 CNS) of 1.94 µM, a TGI (SF-268 CNS) of 3.46 µM and a GI50 (HCC-2998 colon) of 1.71 µM. The TGI (HCC-2998 colon) was 3.1 µM, the GI50 (LOX IMVI melanoma) was 1.93 µM and the TGI (LOX IMVI melanoma) was 3.36 µM. For the same molecule, the GI50 (HOP-62 NSCLC) was 5.27 µM, the TGI (HOP-62 NSCLC) was 16.2 µM and the GI50 (T-47D breast) was 6.09 µM. The TGI (T-47D breast) was 18.6 µM, the GI50 (NCI-H226 lung) was 2.6 µM and the TGI (NCI-H226 lung) was 5.69 µM. For the same molecule, the GI50 (SK-OV-3 ovarian) was 4.48 µM, the TGI (SK-OV-3 ovarian) was 15.5 µM and the GI50 (HT29 colon) was 2.29 µM. The TGI (HT29 colon) was 4.83 µM, the GI50 ([…]-0 renal) was 2.61 µM and the TGI (786-0 renal) was 7.22 µM. The GI50 (DU-145 prostate) was 18.6 µM, the TGI (DU-145 prostate) was 32.6 µM and the GI50 (NCI-H322M lung) was 4.14 µM. For the same molecule, the TGI (NCI-H322M lung) was 12.6 µM, the GI50 (BT-549 breast) was 2.1 µM and the TGI (BT-549 breast) was 3.7 µM. It also gave a GI50 (HL-60(TB) leukemia) of 1.75 µM, a TGI (HL-60(TB) leukemia) of 3.14 µM and a GI50 (SN12C renal) of 2.09 µM. For the same molecule, the TGI (SN12C renal) was 3.78 µM, the GI50 (IGROV1 ovarian) was 1.79 µM and the TGI (IGROV1 ovarian) was 3.34 µM. For the same molecule, the GI50 (CCRF-CEM leukemia) was 1.81 µM, the TGI (CCRF-CEM leukemia) was 3.21 µM and the GI50 (NCI/ADR-RES ovarian) was 15.3 µM. It also gave a TGI (NCI/ADR-RES ovarian) of 28.6 µM, a GI50 (HCT-116 colon) of 1.83 µM and a TGI (HCT-116 colon) of 3.29 µM. The GI50 (SW-620 colon) was 1.93 µM, the TGI (SW-620 colon) was 3.37 µM and the GI50 (MDA-MB-468 breast) was 2.18 µM. For the same molecule, the TGI (MDA-MB-468 breast) was 3.7 µM, the GI50 (PC-3 prostate) was 2.17 µM and the TGI (PC-3 prostate) was 3.96 µM. For the same molecule, the GI50 (MALME-3M melanoma) was 2.52 µM, the TGI (MALME-3M melanoma) was 4.96 µM and the GI50 (HCT-15 colon) was 1.93 µM. The TGI (HCT-15 colon) was 3.36 µM, the GI50 (UACC-62 melanoma) was 1.92 µM and the TGI (UACC-62 melanoma) was 3.36 µM.
